The test system of one data set is NMDA receptors. Particulars: cited from earlier work; for effect on hyperalgesia and allodynia: given systemically and locally; for doses at which the effects are seen: reported by some researchers.
The test system of data set [1] is thermal hyperalgesia in allodynic rats. The experiment in a line: Thermal hyperalgesia test (paw withdrawal latency) in CCI (Bennett) rats. Type of data set: in vivo, rat.
The subject of data set [2] is agrin protein. The experiment in a line: Western blot of agrin protein in L3-5 spinal cord. The class given is in vivo, rat. Here is the method:
Western blot for detecting protein expression of agrin: Agrin protein was analyzed from L3-5 spinal cord with Western blot as described below at times of 1 day, 3 days, and 7 days post-surgery. The changes in these proteins between sham-operated, nerve-injured (no drug), and nerve-injured (pre-emptive drug) groups were analyzed.
Agrin Protein Extraction: The rats were deeply anesthetized with isoflurane and decapitated. Spinal cord L3-5 was quickly removed and immediately placed into tissue lysis buffer (1 ml, Sigma Co., St. Louis, Mo.) that contained protein enzyme inhibitors (1:100, Halt, Pierce). The tissue was homogenized for 2 min and incubated on ice for 45 min. The sample was then centrifuged at 10,000×g for 30 min at 4° C. The supernatant was transferred to a new tube and centrifuged again for further clarifying. The concentration of the protein was determined by an Agilent's Bio-Rad protein chip (Agilent's 2100 bioanalyzer, Santa Clara, Calif.) and by the […] (reagents from Bio-Rad).
(§1) Western blot: Protein (20 μg) from each sample was mixed with 2× electrophoresis buffer and boiled for 5 min. The samples, along with a negative control, were loaded on 4-15% acrylamide tris-glycine SDS gels and electrophoresed in a cell (Bio-Rad) for approximately 1 hr. A Hybond-P polyvinylidene difluoride membrane (Bio-Rad, Hercules, Calif.) was used for transferring the protein in a mini-trans-blot transfer cell (Bio-Rad) for 2 hr. The membrane was then soaked in 2% milk for 1 hour and probed with monoclonal agrin antibody (Agr510 and Agr530, 1:5000, StressGen Biotechnologies Corp., Victoria, Canada) or β-actin antibody (1:5000) at 4° C. overnight with continual shaking. The following day goat anti-mouse secondary antibody conjugated to Alexa Fluor680 (1:5000, Molecular Probe) was added to the membrane and incubated for 1 hr at room temperature. The samples were washed three times with TBS buffer (Tris Buffered Saline, DAKO, Carpinteria, Calif.) between steps. The membrane was then scanned with an Odyssey (LI-COR) scanner and analyzed by Odyssey software (Li-Cor, Lincoln, Nebr.).
In rats with tactile allodynia (a withdrawal threshold with a filament below 8 g), an intrathecal catheter (PE 10) was installed and linked to an osmotic pump (Alzet) in a 37° C. water bath. Following a bolus injection of SCP-1 (30 nmol/kg, 10 μl), agrin siRNA (100 nM) was intrathecally administered continuously by the pump at a rate of 5 μl/1 hour for 4 hr. The animals were subjected to von Frey filament test every 15 min for 4 hr to determine whether the effects of SCP-1 on allodynia suppression are blocked by agrin siRNA. A control siRNA (nFsiRNA) was applied in the same way. The behavioral data was analyzed for agrin effects. […]

Data set [3] concerns tactile allodynia in allodynic rats. The experiment in a line: Tactile allodynia test (von Frey filaments, paw withdrawal threshold) in CCI (Bennett model) rats. Type of data set: in vivo, rat. To be noted: for effect on paw-withdrawal threshold: intrathecal 100 nmol in 10 μl in allodynic rats, day 7 after injury, up to 8 hr. An excerpt:
Bennett Model: In this model, approximately 0.8 cm of the left sciatic nerve was exposed and freed with sharpened scissors at middle-thigh level as described by Bennett and Xie.^[76] Four ligatures were placed loosely around the sciatic nerve with 4-0 chromic catgut, with 1 mm space between the ties, which compresses the nerve but epineural blood circulation is preserved. The tissue and skin were closed in layers. […] Most allodynia was seen during the time period of 7-14 days after the surgery.
Intrathecal catheter installation: A PE10 catheter, stretched to a somewhat thinner diameter in the distal part, was introduced into the spinal canal (subarachnoid space) via a 21 G (gauge) cannula between the L5 and L6 lamina and advanced to the lumbar enlargement in rats. The proximal part was tunneled under the skin and led out on the upper dorsal region. The location of the catheter was verified by the injection of 6 μl (50 mg/ml) xylocalne, such that a transient, flaccid paralysis of the legs was produced, and by X-ray after administration of 10 μl iodine contrast medium (Astra, Sweden). The catheter could be kept for up to two weeks in animals.^[79]
(§2) The maximum volume injected at any one time was 10 μl.^[79]
Tactile allodynia test: In a transparent glass chamber (20×20 cm) with a mesh net floor, each animal was subjected to the tactile allodynia test. A positive response is when an innocuous tactile stimulus induces a brief paw withdrawal away from the stimulation, similar to a paw withdrawal due to heat. A set of von Frey filaments from 0.01 to 28 g (Stoelting Co., Wood Dale, Ill.) were applied to the mid-paw of the allodynic rats at 1 gram, and then progressing up or down. The filament was pressed against the plantar surface for 1 to 2 seconds until it bent. Subsequent applications were made with a higher or lower von Frey filament depending on the animal response. The testing always began with normal paws. If a filament induced a brief paw withdrawal of a paw without bending in three out of five tests, the size of the filament was recorded as eliciting a positive withdrawal threshold.^[80] Allodynia was considered to be present when a withdrawal threshold was evoked by a filament corresponding to 8 grams or less.
In rats with tactile allodynia (a withdrawal threshold with a filament below 8 g), an intrathecal catheter (PE 10) was installed and linked to an osmotic pump (Alzet) in a 37° C. water bath. Following a bolus injection of SCP-1 (30 nmol/kg, 10 μl), agrin siRNA (100 nM) was intrathecally administered continuously by the pump at a rate of 5 μl/1 hour for 4 hr. The animals were subjected to von Frey filament test every 15 min for 4 hr to determine whether the effects of SCP-1 on allodynia suppression are blocked by agrin siRNA. A control siRNA (nFsiRNA) was applied in the same way. The behavioral data was analyzed for agrin effects. Immediately after behavioral experiments, the animals were sacrificed and subjected to protein extraction of lumbar spinal cord, followed by Western-blot analysis as described above.
A blind test was designed for intrathecal drug evaluations. Five days after CCI, rats were subjected to tactile allodynia tests with von Frey filaments. If a filament corresponding to 8 grams or less evoked a withdrawal response on the rat paw (at least 3 responses out of 5 stimuli), the value was designated as the allodynia threshold. […] Either a drug (100 nmol in 10 μl saline) or vehicle (only 10 μl saline) was pre-warmed and intrathecally injected into the allodynic rats. Then the rats were assayed for changes in allodynic and hyperalgesic behavior, agrin gene expression, and agrin protein changes. In addition, distribution and amount of agrin in the dorsal horn were visualized using immunostaining of L5 as reported above in Example 7.

For data set [4] the test system is unchanged. Described as above. The class given is in vivo, rat.
The test system of a further data set is rodents. Particulars: rodents, dose of 6 mmol/kg; cited from earlier work.
Data set [5] has as its system agrin protein. The experiment in a line: Rat lumbar spinal tissue culture, agrin protein by Western blot. Type of data set: cell-based. Here is the method:
(§3) Spinal cord tissue culture: The dorsal horn of fresh rat lumbar spinal cord was cut into 1-mm sections with a sharp blade under sterile conditions and maintained in culture in 12-well plates with DMEM and 10% FBS. After 2 days, 100 μM NMDA was added to 6 wells. The other 6 wells were used as controls. The culture was maintained for 24 hr, and the tissue subjected to RNA and protein extraction as well as RT-PCR and Western blotting to examine alterations of agrin gene and protein, as described in this Example.
as §1, with “The following day goat anti-mouse secondary antibody conjugated to Alexa Fluor680 (1:5000, Molecular Probe) was added to the membrane and incubated for 1 hr at room temperature. The samples were washed three times with TBS buffer (Tris Buffered Saline, DAKO, Carpinteria, Calif.) between steps.” left out, “Nebr.). […]” for “Nebr.).”

The test system of the next data set is agrin mRNA. The experiment in a line: Rat lumbar spinal tissue culture, agrin mRNA by RT-PCR. The class given is cell-based. To be noted: for agrin gene expression: 24 h. The method, then:
as §3
Following peripheral nerve injury, large amounts of glutamate, aspartate, and substance P are released into the extracellular space and excite post-synaptic neurons. […] Exogenous NMDA and substance P (“SP”) were used to culture rat lumbar spinal tissue. The normal dorsal part of lumbar spinal cord was cut into 0.5 mm slices and cultured in DMEM plus 10% FBS serum. After culturing for 24 h, the slices were treated with 100 μM NMDA with or without 10 nM substance P. Control slices were not treated with NMDA or substance P. Each group (experimental and control) had six samples. At 6 h and 24 h after treatment, the slices were subjected to RNA and protein extraction. The extractions were then assayed for agrin mRNA and agrin protein as described above in Examples 1-3. Briefly, the agrin mRNA was assayed using RT-PCR using C-terminal agrin primers for 36 cycles; and the agrin protein was assayed using Western Blot.

For data set [6], the system named is transitory inflammatory-induced hyperalgesia. To be noted: pain model with transitory inflammatory-induced hyperalgesia; cited from earlier work.
Data set [7] in a line: Solubility for intrathecal injection. The class given is physicochemical. Here is the method:
as §2

Where no end group is shown, it is not given here.

Take `C[C@@H]([C@@H](O)c1ccc(O)cc1)N1CCC(O)(c2ccccc2)CC1` [(1S,2S)-1-(4-hydroxy-phynel)-2-(4-hydroxy-4-phenyl-piperidino)-1-propanol]: the effect on hyperalgesia/allodynia result in the data set with NMDA receptors (animal models of neuropathic pain) is on record as “depressed hyperalgesia/allodynia at a dose devoid of adverse effects”.

On to `CC(=O)Nc1ccc(O)cc1` [APAP, acetaminophen, reference compound], for which, in data set [1] (intrathecal 100 nmol in 10 μl, CCI (Bennett) rat model), the “increase in paw-withdrawal latency (thermal hyperalgesia)” value is listed as “a similar effect on latency”. In addition, the “effect on paw-withdrawal latency at 120 min post injection” value in data set [1] (intrathecal 100 nmol, 120 min) is “dropped to the initial latency value”. The agrin protein result in the data set on agrin protein [2] (pre-emptive intrathecal injection prior to CCI, 3 and 7 days) is on record as “did not prevent the drop in agrin protein”. In [3] (intrathecal 100 nmol), the “time after injection at which the effect began to diminish” value is given as 90 min. In addition, the “duration of effect on withdrawal threshold” value in data set [3] (intrathecal 100 nmol in 10 μl) is listed as “short duration”. For the same molecule, the “effect on paw-withdrawal threshold” value in data set [3] was “a less robust effect on the withdrawal threshold”. In addition, the maximum withdrawal threshold result in data set [3] (intrathecal, same dose and volume (100 nmol in 10 μl)) is given as “about 22 g”. Besides, the “effect on tactile allodynia (paw withdrawal threshold)” value in data set [4] (pre-emptive intrathecal 100 nmol in 10 μl saline immediately prior to CCI, 0, 3, 7 days) is “showed an effect similar to SCP-1”. Moreover, in data set [4] (pre-emptive intrathecal 100 nmol prior to CCI, 7 days after injury), the “effect on paw withdrawal threshold at 7 days” value is reported as “sharply reduced”. In addition, the lethality entry in the data set on rodents was “killed all the animals”.

On to `C[C@]12N[C@H](Cc3ccccc31)c1ccccc12` [MK801], for which, in the data set with NMDA receptors, the “effect on hyperalgesia and allodynia” value is “suppress hyperalgesia and allodynia”; the “doses at which the effects are seen” value is listed as “only be seen at doses that induce ataxia”. Further, the “effect on agrin protein decrease from NMDA receptor over-stimulation” value with agrin protein [5] (20 μM MK801 with either NMDA alone or NMDA plus substance P, 24 hr) is given as “blocked agrin decrease”.

Consider `CN[C@H](CC(=O)O)C(=O)O` [NMDA], for which the “agrin mRNA” value in the data set on agrin mRNA (100 μM NMDA with or without SP, 6 h) is “No decrease in agrin mRNA”. For the same molecule, the agrin gene expression result with agrin mRNA (100 μM NMDA, compared to controls without NMDA) was “visually less”. In the data set with agrin protein [5] (100 μM NMDA, 24 h), the agrin protein result is “a decrease in agrin”.

On to `O=C(CNS(=O)(=O)c1ccccc1C(=O)O)Nc1ccc(O)cc1` [SCP-M1], for which the analgesic activity entry in [6] was “high analgesic activity”. The “solubility compared with SCP-1” value in data set [7] is “very similar to that of SCP-1”. Besides, the “solubility in 45% 2-hydroxypropyl-α-cyclodextrin in saline” value in data set [7] (45% cyclodextrin in saline, 10 mM solutions prepared) is on record as “can dissolve them”. The solubility in water entry in [7] (water) is on record as “do not dissolve readily in water”. The “effect on paw-withdrawal threshold” value in data set [3] is “a faster response and a faster return to normal values for withdrawal thresholds than was seen in SCP-1”.

Regarding `CNC1(c2ccccc2Cl)CCCCC1=O` (stereo not drawn) [ketamine], in the data set on NMDA receptors, the “effect on hyperalgesia and allodynia” value was “suppress hyperalgesia and allodynia”; the “doses at which the effects are seen” value is “only be seen at doses that induce ataxia”.

Take “SP: substance P, increases NMDA receptor excitability by removing magnesium blocking (RPKPQQFFGLM-NH2; ends and bridges not checked; UniProt P20366 58-68, looked up)”: the agrin gene expression entry with agrin mRNA (10 nM substance P added to 100 μM NMDA) is “enhanced the down-regulation by NMDA”.

For the molecule “agrin siRNA: siRNA for C-terminal agrin, position 5994; sense GCCCUCAAAGUCCUGUGAUtt (SEQ ID NO: 11), antisense SEQ ID NO: 12 (sense GCCCUCAAAGUCCUGUGAUTT; antisense AUCACAGGACUUUGAGGGCTT; chemistry not given here)”, the “agrin protein level when injected with SCP-1” value in the data set on agrin protein [2] (siRNA plus SCP-1, allodynic rats, 2 h post-injection) is on record as “did not return to normal levels”. The “effect on the SCP-1 effect on withdrawal threshold” value in data set [4] (siRNA 100 nM intrathecally at 5 μl/hour continuously after bolus injection of SCP-1) was “antagonized the SCP-1 and inhibited the effect on withdrawal threshold”.

Source of the values: patent US20100004171A1, “Therapeutic Methods for Neuropathic Pain” (priority 2006, published 2010).
